Results on 3 compounds are retold here after patent US8309768B2, “FTY720-derived anticancer agents” (The Ohio State University Research Foundation, priority 2010, dated 2012).

For one series, the system named is Huh7 cells. Put plainly: MTT cell viability assay, Huh7. Format: cell-based. As to the method: (§1) Cell lines, culture and reagents. The HCC cell lines Hep3B, PLC5 and Huh7, as well as primary nonmalignant human hepatocytes were used in this study. Cancer cells were cultured in Dulbecco's Modified Eagle's medium (DMEM) supplemented with 10% fetal bovine serum (FBS). Hepatocytes were maintained in defined Hepatocyte Culture Medium. […] Various polyclonal and monoclonal antibodies were used for western blotting, immunocytochemical, and flow cytometric analyses.
(§2) Cell viability assay. Cell viability was assessed by 3-(4,5-dimethylthiazol-2-yl)-2,5-diphenyl-2H-tetrazolium bromide (MTT) assays in six replicates. Cells were seeded (4,000 cells/well; 96-well plate) for 24 h and treated with test agents in 5% FBS-supplemented DMEM. After treatment, cells were incubated in medium containing 0.5 mg/ml MTT (37° C., 2 h). Reduced MTT was dissolved in DMSO (200 μL/well) and absorbances measured at 570 nm.

The test system of another series is CLL cells. Put plainly: Western blot analysis in CLL cells (PARP, caspase 3, caspase 9). Type of series: cell-based. An excerpt:
Western blot analysis as carried out to further observe the effects of OSU-2S in CLL cells. […] OSU-2S in CLL activates caspase, as evidenced by cleavage of poly (ADP-ribose) polymerase (PARP). Jurkat cell with or without UV irradiation were included as controls. […] OSU-2S was also shown to activate caspase 3 in CLL cells. […] Finally, OSU-2S activates caspase 9 in CLL.

A further series relates to primary CLL cells. The series is described as follows: Cytotoxicity in primary CLL cells (Annexin V / propidium iodide flow cytometry). Conditions: primary CLL cells, 24 hrs, OSU-2S at 8 μM. Format: cell-based. As to the method:
Antitumor and other effects of OSU-2S were also evaluated in Chronic Lymphoid Leukemia cells. OSU-2S cytotoxicity in primary CLL cells is measured at 24 hrs by staining for Annexin V and Propidium Iodide using Flow cytometer. The number of live cells (stained negative for both the stains) were normalized to untreated control. Fludarabine metabolite (2-Fara) was used as a control.
The effect of OSU-2S was evaluated in 3 different CLL cell lines (WROTH<THOU, and RAHUE) over a 24 hour period, as shown in FIG. 9. Time dependent OSU-2S cytotoxicity in primary CLL cells was measured by treating the cells with OSU-2S (8 μM) for indicated period of time and washed and cultured in the fresh media for 24 hr. The number of live cells stained negative for Annexin V and Propidium Iodide were measured at 24 hrs by using Flowcytometer and normalized to untreated control.
CD37 activation and OSU-2S produced enhanced cytotoxicity in CLL cells, as detected by flow cytometer at 24 hr. in CLL cells treated with CD37 antibody and cross linker or OSU-2S 8 μM or with both are stained for Annexin V and propidium iodide at 24 hr.

Series [1] has as its target T1, S1P1 receptor-overexpressing Huh7 cells (Homo sapiens, UniProt P21453).
T1 construct: expressed in transfected cells
The series is described as follows: Cell viability in stable S1P1 receptor transfectants. Type of series: cell-based. As to conditions: two stable S1P1 clones vs wild-type Huh7. As to the method:
as §2
Overexpression of S1P1 Receptors. Huh7 or Hep3B cells were transfected with plasmids encoding S1PR1, Flag-tagged GST-π or hemagglutinin (HA)-tagged, CA-Akt. The corresponding empty vectors were used as controls. Stable clones were selected over 3 weeks by geneticin, and the expression of cloned proteins was confirmed by Western blotting.

A further series relates to normal human hepatocytes. Put plainly: MTT cell viability assay, normal hepatocytes. Format: cell-based. As to conditions: 24 h. Here is the method: as §1, §2
Series [2] concerns SphK2 siRNA-transfected Huh7 cells. Put plainly: Cell viability after siRNA-mediated knockdown of SphK2. Type of series: cell-based. As to conditions: SphK2 siRNA vs scrambled. As to the method:
as §2
Small interfering (si)RNA- or short hairpin (sh)RNA-mediated knockdown. PLC5 and Huh7 cells were transfected with the following siRNA duplexes or shRNA plasmids according to the manufacturer's protocol for the knockdown of target genes: siRNA: glutathione S-transferase (GST)-π and sphingosine kinase 2 (SphK2); shRNA constructs: pKD-PKCδ-v2. Stable clones were isolated from Huh7 cells transfected with shRNA plasmids were further subjected to stable clone isolation by geneticin. Immunoblotting was performed to confirm the knockdowns.

For another series, the system named is Hep3B cells. The series is described as follows: MTT cell viability assay, Hep3B. Conditions: Homo sapiens, 24 h of treatment. Type of series: cell-based. Here is the method:
as §1, §2

The test system of series [3] is orthotopic Hep3B-luc tumors. The series is described as follows: Orthotopic Hep3B-luc xenograft tumor model. Format: in vivo, athymic nude mice. On the set-up: dose or concentration left out as unconfirmed. Conditions: by three weeks. The text has this: Orthotopic tumors were established by direct intrahepatic injection of luciferase-expressing Hep3B (Hep3B-luc) cells as described. Omar et al., Mol Pharmacol, 76, 957-968 (2009). The establishment and growth of tumors were monitored by bioluminescent imaging using the IVIS™ imaging system (Xenogen, Alameda, Calif.). […] All animal use described in this manuscript was done in accordance with protocols approved by The Ohio State University Institutional Animal Care and Use Committee.

The target in series [4] is T2, PP2A (Serine/Threonine Phosphatase 2A) (Homo sapiens, UniProt P67775).
T2 construct: endogenous in cells; host or cells: primary CLL cells; Ramos cells
T2 sequence (P67775 whole entry): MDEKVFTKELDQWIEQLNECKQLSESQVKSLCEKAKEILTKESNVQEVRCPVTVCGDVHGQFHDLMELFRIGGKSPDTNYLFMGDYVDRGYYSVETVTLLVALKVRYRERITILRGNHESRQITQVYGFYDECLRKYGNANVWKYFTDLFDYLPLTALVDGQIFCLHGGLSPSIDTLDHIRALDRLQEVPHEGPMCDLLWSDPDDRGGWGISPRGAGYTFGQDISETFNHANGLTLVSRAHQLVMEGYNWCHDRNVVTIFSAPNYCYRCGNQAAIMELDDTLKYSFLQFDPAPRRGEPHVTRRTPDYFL
Put plainly: PP2A functional enzymatic assay (malachite green) in primary CLL cells. Format: cell-based. Conditions: 24 hrs, OSU-2S 8 μM, untreated about 0.07. As to the method:
The ability of OSU-2S to induce PP2A (Serine/Threonine Phosphatase 2A) activity in primary CLL cells was measured at 24 hrs by a functional enzymatic assay. Lysates made from OSU-2S 8 μM treated cells are used to immunoprecipitate PP2Ac which was then used as an enzyme to cleave the specific phosphor-peptide substrate in the functional assay. The cleaved free phosphates were measured by adding malachite green detection solutions and measuring the absorbance at A650 nm. Ramos cells were also included, and FTY720 was used as the control.

The subject of series [5] is PTEN, p53, Mcl-1 in Huh7 cells. The series is described as follows: Western blot of signaling markers in drug-treated Huh7 cells. Type of series: cell-based. As to conditions: 24 h. As to the method: Immunoblotting. Immunoblotting of biomarkers in cell lysates and tumor tissue homogenates was carried out according to a published procedure. Hung et al., Cancer Res., 68, 1204-1212 (2008).

Series [6] deals with subcutaneous Hep3B tumors. The series is described as follows: Ectopic (subcutaneous) Hep3B xenograft tumor model. Type of series: in vivo, athymic nude mice. As to the method:
(§3) Xenograft tumor models. Ectopic tumors were established in athymic nude mice by subcutaneous injection of 1×10^6 Hep3B cells in a total volume of 0.1 ml of serum-free medium containing 50% Matrigel. Mice with established tumors were randomized to five groups (n=8) that received daily i.p. injections of OSU-2S or FTY720 at 5 or 10 mg/kg, or the vehicle. Tumor burdens were determined weekly using calipers (volume=width^2×length×0.52). Body weights were measured weekly. At the study endpoint, tumors were harvested, snap-frozen and stored at −80° C. for biomarker analysis. Blood and tissues were collected for evaluation of complete blood counts, serum chemistry and histopathology.

For another series, the system named is PLC5 cells. The series is described as follows: MTT cell viability assay, PLC5. Format: cell-based. As to conditions: 24 h of treatment. Here is the method:
as §1, §2

Series [7] deals with T1, S1P1 receptor-overexpressing Huh7 cells. Put plainly: Immunocytochemical analysis of S1P1 receptor internalization. Type of series: cell-based. Conditions: immunocytochemistry.
Protocol: Immunocytochemistry. Immunocytochemical analysis of S1P1 internalization and PKCδ nuclear translocation were performed as described. […] Briefly, treated cells were washed, fixed with 4% paraformaldehyde, and permeabilized with 0.1% Triton X-100. After blocking with 2% FBS, cells were incubated with rabbit anti-S1P1 or rabbit anti-PKCδ antibodies (1:200 dilution, 4° C., 24 h), followed by Alexa Fluor 488-conjugated goat anti-rabbit IgG (room temperature, 1 h). Nuclei were counterstained with a 4,6-diamidino-2-phenylindole (DAPI)-containing mounting medium (Vector Laboratories, Burlingame, Calif.).
In series [8] the test system is lymphocytes in peripheral blood. Put plainly: In vivo evaluation of T-lymphocyte homing. As to conditions: CD2F1 mice, i.p., 6 h. Here is the method: In vivo evaluation of T-lymphocyte homing. […] Six hours later, animals were sacrificed, and peripheral blood mononuclear cells were prepared as described. Dragun et al., Kidney Int 65, 1076-1083 (2004). Cells were stained with FITC-labeled rat anti-mouse CD3 molecular complex and PE-labeled rat anti-mouse CD45RA (4° C., in darkness, 30 min), and analyzed by flow cytometry.

The nature of series [9]: Toxicity evaluation in tumor-bearing mice (body weight, blood counts, histopathology). Format: in vivo, athymic nude mice. As to conditions: for mice with abdominal adhesions with varying amounts of peritonitis: of six mice per group examined histologically. Here is the method:
as §3
Orthotopic tumors were established by direct intrahepatic injection of luciferase-expressing Hep3B (Hep3B-luc) cells as described. Omar et al., Mol Pharmacol, 76, 957-968 (2009). The establishment and growth of tumors were monitored by bioluminescent imaging using the IVIS™ imaging system (Xenogen, Alameda, Calif.). Two weeks after tumor cell injection, animals with established tumors were randomized to three groups (n=3) that received daily i.p. injections of FTY720 or OSU-2S at 5 mg/kg, or vehicle for 42 days and were imaged weekly. All animal use described in this manuscript was done in accordance with protocols approved by The Ohio State University Institutional Animal Care and Use Committee.

T1 sequence (P21453 whole entry): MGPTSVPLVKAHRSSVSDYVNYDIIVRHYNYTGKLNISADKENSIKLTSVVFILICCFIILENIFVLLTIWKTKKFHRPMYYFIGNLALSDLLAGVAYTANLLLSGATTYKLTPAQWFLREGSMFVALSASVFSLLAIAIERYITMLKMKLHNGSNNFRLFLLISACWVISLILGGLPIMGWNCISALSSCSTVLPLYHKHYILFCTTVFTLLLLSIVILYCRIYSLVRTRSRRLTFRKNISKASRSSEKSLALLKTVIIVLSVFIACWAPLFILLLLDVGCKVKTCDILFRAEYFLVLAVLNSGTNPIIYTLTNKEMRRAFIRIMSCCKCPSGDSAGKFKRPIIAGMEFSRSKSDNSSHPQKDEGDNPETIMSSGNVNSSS

`CCCCCCCCc1ccc(CCC(N)(CO)COP(=O)(O)O)cc1` (stereo not drawn) [p-FTY720]: the “suppression of HCC cell viability by phosphate derivatives” value in the series on Huh7 cells (24 h, MTT (FIG. 6A)) is “lacks in vitro efficacy”.
For `Nc1nc(F)nc2c1ncn2[C@@H]1O[C@H](CO)[C@@H](O)[C@@H]1O` [2-Fara, reference compound], the “caspase 3 activation” value in the series with CLL cells (24 and 48 hours, products at about 16-18 kD) is “caspase 3 cleaved products”. The “caspase 9 activation” value in the series on CLL cells (products at about 30-34 kD) is on record as “caspase 9 cleaved products”. For the same compound, the “growth (live cells normalized to untreated control)” value in the series on primary CLL cells is recorded as 100%.
Turning to `CCCCCCCCc1ccc(CCC(N)(CO)CO)cc1` [FTY720], the “effect of S1P1 receptor overexpression on antiproliferative activity” value in series [1] is listed as “partially protected”. In addition, the IC50 in the series on Huh7 cells (Homo sapiens, Huh-7, 24 h of treatment, MTT) turned out to be 4.8 µM; with Hep3B cells, 4.2 µM; in the series with PLC5 cells it was 6.2 µM. For the same compound, in the series with normal human hepatocytes, the “sensitivity of normal human hepatocytes relative to malignant cells” value was “resistant”. Besides, the “effect of SphK2 knockdown on antiproliferative activity (sensitizing effect)” value in series [2] is given as “significantly increased”. Besides, the “orthotopic tumor burden (bioluminescence)” value in [3] is “suppressed mean tumor burden to the original level”. Further, in [4], the “PP2A activity, absorbance at A650 nm” value is listed as “about 0.20”. Further, the “effect on expression levels of PTEN, p53, or Mcl-1” value in series [5] is on record as “neither OSU-2S nor FTY720 had an appreciable effect”. The “ectopic Hep3B tumor growth vs vehicle control” value in series [6] (5 mg/kg, i.p. once daily, P<0.001) is “completely suppressed”. The “dose dependency of tumor-suppressive response” value in [6] (5 and 10 mg/kg i.p. daily) is “no dose dependency”. In addition, in series [6] (Hep3B tumor tissue homogenates, Western blot), the “intratumoral biomarkers of drug activity” value was “PKCδ and caspase-3 were activated”. Further, the “S1P1 receptor internalization and clustering in the cytoplasm” value in [7] is given as “profound effect”. In series [8] (1 mg/kg), the “drop in the number of T lymphocytes in peripheral blood” value was no less than 75%. In series [8], the “changes in circulating B lymphocytes” value is recorded as “no comparable changes”. Also, the “mice with abdominal adhesions with varying amounts of peritonitis” value in series [9] (5 mg/kg) is “three”; in series [9] (10 mg/kg), “all”. The lymphocyte levels result in series [9] (ectopic tumor-bearing mice at study endpoint) is “minimal to mild lymphopenia”. The “overt toxicity and body weight” value in series [9] (ectopic tumor-bearing mice, daily i.p. 5 or 10 mg/kg) was “no overt signs of toxicity and no loss of body weight”. For the same compound, the “tolerability (stable body weights)” value in series [9] (orthotopic tumor-bearing mice, daily i.p., 42 days) was “well tolerated”.
